These results are taken from ChEMBL document CHEMBL4304788, “Treatment of Cancer and Alzheimer's Disease by PROTAC Degradation of EGFR” (ACS Med Chem Lett, 2019).

Each structure is given as a SMILES string.

For the assay, the target named is Protein cereblon/Epidermal growth factor receptor (Homo sapiens, UniProt P00533+Q96SW2, L858R/T790M). Kind of assay: Protac activity at native cereblon/EGFR T790M/L858R mutant (unknown origin) transfected in mouse Baf3 cells assessed as reduction in cell proliferation by MTS assay. The format is cell-based.
Protein cereblon/Epidermal growth factor receptor, sequence (P00533 25-1210 T790M/L858R limits assumed, stated change not applied): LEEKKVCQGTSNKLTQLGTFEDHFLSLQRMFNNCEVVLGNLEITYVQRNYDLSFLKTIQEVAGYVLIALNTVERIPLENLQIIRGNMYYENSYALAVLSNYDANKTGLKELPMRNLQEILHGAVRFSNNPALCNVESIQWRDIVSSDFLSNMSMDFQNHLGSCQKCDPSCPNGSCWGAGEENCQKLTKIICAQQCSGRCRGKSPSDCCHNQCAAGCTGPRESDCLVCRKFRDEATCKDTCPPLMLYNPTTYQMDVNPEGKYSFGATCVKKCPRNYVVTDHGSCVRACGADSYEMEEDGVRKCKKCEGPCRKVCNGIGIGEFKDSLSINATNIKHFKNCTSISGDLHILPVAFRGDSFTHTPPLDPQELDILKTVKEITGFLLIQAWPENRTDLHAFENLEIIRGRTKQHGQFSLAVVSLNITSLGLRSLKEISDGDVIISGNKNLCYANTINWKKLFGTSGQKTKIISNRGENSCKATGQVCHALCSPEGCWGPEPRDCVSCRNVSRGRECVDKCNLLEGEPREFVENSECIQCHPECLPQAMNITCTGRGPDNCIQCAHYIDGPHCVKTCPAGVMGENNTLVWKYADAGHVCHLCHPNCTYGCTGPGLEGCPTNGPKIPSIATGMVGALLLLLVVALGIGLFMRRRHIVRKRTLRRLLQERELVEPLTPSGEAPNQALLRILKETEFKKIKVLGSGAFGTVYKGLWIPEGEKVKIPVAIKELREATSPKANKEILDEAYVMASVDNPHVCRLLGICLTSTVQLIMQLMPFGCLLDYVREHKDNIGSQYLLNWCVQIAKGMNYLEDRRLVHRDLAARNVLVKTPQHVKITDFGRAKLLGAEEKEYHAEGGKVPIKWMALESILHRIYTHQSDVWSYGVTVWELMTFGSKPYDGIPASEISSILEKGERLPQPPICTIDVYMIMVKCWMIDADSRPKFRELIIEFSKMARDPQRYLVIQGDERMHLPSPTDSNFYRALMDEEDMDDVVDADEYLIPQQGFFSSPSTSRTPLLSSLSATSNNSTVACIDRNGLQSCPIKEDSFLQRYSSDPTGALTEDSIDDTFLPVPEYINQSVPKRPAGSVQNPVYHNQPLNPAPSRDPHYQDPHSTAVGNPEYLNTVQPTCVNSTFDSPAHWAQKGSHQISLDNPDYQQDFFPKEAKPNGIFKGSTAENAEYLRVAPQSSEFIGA
Protein cereblon/Epidermal growth factor receptor, sequence (Q96SW2 whole entry, stated change not applied): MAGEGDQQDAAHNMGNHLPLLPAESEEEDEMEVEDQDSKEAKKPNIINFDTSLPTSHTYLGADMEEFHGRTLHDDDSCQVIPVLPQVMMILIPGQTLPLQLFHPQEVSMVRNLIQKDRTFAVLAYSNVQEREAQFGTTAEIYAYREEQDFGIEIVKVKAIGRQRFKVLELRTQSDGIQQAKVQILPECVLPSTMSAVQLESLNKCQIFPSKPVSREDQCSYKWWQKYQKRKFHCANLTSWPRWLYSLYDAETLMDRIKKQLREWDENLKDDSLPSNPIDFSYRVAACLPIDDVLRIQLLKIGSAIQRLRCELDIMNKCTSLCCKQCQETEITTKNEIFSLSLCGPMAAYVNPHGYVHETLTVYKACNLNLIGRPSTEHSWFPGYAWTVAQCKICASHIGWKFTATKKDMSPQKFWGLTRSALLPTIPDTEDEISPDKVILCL
Consider `O=C1CCC(N2C(=O)c3cccc(NCCOCCOCCOCCN4CCN(c5ccc(-c6ccc7c(c6)C(=O)N(C(C(=O)Nc6nccs6)c6ccccc6)C7)cn5)CC4)c3C2=O)C(=O)N1` (centres undefined), for which the EC50 was less than 500 nM. Next, `O=C1CCC(N2C(=O)c3cccc(NCCOCCOCCOCCOCCN4CCN(c5ccc(-c6ccc7c(c6)C(=O)N(C(C(=O)Nc6nccs6)c6ccccc6)C7)cc5)CC4)c3C2=O)C(=O)N1` (centres undefined): less than 500 nM. With `O=C1CCC(N2C(=O)c3cccc(NCCOCCOCCOCCN4CCN(c5ccc(-c6ccc7c(c6)C(=O)N(C(C(=O)Nc6nccs6)c6ccccc6)C7)cc5)CC4)c3C2=O)C(=O)N1` (centres undefined), the EC50 was less than 500 nM. As to `O=C1CCC(N2C(=O)c3cccc(NCCOCCOCCOCCC(=O)N4CCN(c5ccc(-c6ccc7c(c6)C(=O)N(C(C(=O)Nc6nccs6)c6ccccc6)C7)cc5)CC4)c3C2=O)C(=O)N1` (centres undefined), the EC50 is less than 500 nM.
